# Laboratory results: publication PMC9539280 (Advanced Science, 2022)
# Legend:
# hCMs [1] = tested on: hCMs
# hCMs [2] = experiment: Spontaneous calcium transient measurement (Fluo-4) in hCMs; conditions: spontaneous, 6 days
# [3] = escalating concentrations (lopinavir: high dosage only)
SMILES,spontaneous calcium transients (hCMs [1]),calcium transient amplitude (hCMs [2]; escalating concentrations (1-20 μM)),time to 50% decay of the calcium transients (hCMs [2]; [3]),time to peak of the calcium transients (hCMs [2]; [3])
"Cc1cccc(/C=N/Nc2cc(N3CCOCC3)nc(OCCc3ccccn3)n2)c1 [Apilimod, apilimod]",no calcium transients were observed,–,–,–
"CCC(CC)COC(=O)[C@H](C)N[P@](=O)(OC[C@H]1O[C@@](C#N)(c2ccc3c(N)ncnn23)[C@H](O)[C@@H]1O)Oc1ccccc1 [Remdesivir, remdesivir]",–,tended to decrease,significantly increased,significantly increased
